Results reported in US9149038B2, “4-amino-6-(heterocyclic)picolinates and 6-amino-2-(heterocyclic)pyrimidine-4-carboxylates and their use as herbicides” (Dow AgroSciences LLC, priority 2013, dated 2015).
Where two headings read alike, the source gives them in different places.

How the values were obtained:
[1] = test system: Key Broadleaf Weed and Crop Species; assay: Post-Emergent Test II: postemergent herbicidal activity, visual rating after 14 d (Table 7); format: in vivo; conditions: post-emergence, 336 h; for pest or weed control at 35 g/ha: 35 g ai/ha; for pest or weed control at 70 g/ha: 70 g ai/ha; for pest or weed control at 140 g/ha: 140 g ai/ha
In short: (§1)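 Track-sprayed young seedlings (first/second true leaf) at 187 L/ha across a 2-fold rate series from the high rate down to 1/16×. Kept in greenhouse at 23-29° C day, subirrigated. Injury rated by eye after 14 d, 0 = no injury, 100 = complete kill.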

[2] = test system: Key Grass and Sedge Weeds as well as Grass Crops; assay: Post-Emergent Test II: postemergent herbicidal activity, visual rating after 14 d (Table 8); format: in vivo; conditions: post-emergence, 336 h; for pest or weed control at 35 g/ha: 35 g ai/ha; for pest or weed control at 70 g/ha: 70 g ai/ha; for pest or weed control at 140 g/ha: 140 g ai/ha
In short: as §1

[3] = ABUTH: velvetleaf (Abutilon theophrasti), read-out: Visual Growth Reduction (%) 14 Days After Application ABUTH
[4] = AMARE: redroot pigweed (Amaranthus retroflexus), read-out: Visual Growth Reduction (%) 14 Days After Application AMARE
[5] = BRSNN: oilseed rape, canola (Brassica napus), read-out: Visual Growth Reduction (%) 14 Days After Application BRSNN
[6] = CHEAL: lambsquarters (Chenopodium album), read-out: Visual Growth Reduction (%) 14 Days After Application CHEAL
[7] = EPHHL: wild poinsettia (Euphorbia heterophylla), read-out: Visual Growth Reduction (%) 14 Days After Application EPHHL
[8] = HELAN: sunflower (Helianthus annuus), read-out: Visual Growth Reduction (%) 14 Days After Application HELAN
[9] = barnyardgrass (Echinochloa crus-galli), read-out: Visual Growth Reduction (%) 14 Days After Application, ECHCG
[10] = giant foxtail (Setaria faberi), read-out: Visual Growth Reduction (%) 14 Days After Application, SETFA
[11] = maize, corn (Zea mays), read-out: Visual Growth Reduction (%) 14 Days After Application, ZEAMX
[12] = rice (Oryza sativa), read-out: Visual Growth Reduction (%) 14 Days After Application, ORYSA
[13] = wheat, spring (Triticum aestivum), read-out: Visual Growth Reduction (%) 14 Days After Application, TRZAS
[14] = yellow nutsedge (Cyperus esculentus), read-out: Visual Growth Reduction (%) 14 Days After Application, CYPES

## COc1c(N)nc(-c2ccc(Cl)c3c2OC(F)(F)O3)nc1C(=O)O [Compound 96]
[1]; [3]
  pest or weed control at 35 g/ha: 75 to 84%
  pest or weed control at 70 g/ha: 60 to 74%
  pest or weed control at 140 g/ha: 85 to 94%
[1]; [4]
  pest or weed control at 35 g/ha: 95 to 100%
  pest or weed control at 70 g/ha: 95 to 100%
  pest or weed control at 140 g/ha: 95 to 100%
[1]; [5]
  pest or weed control at 35 g/ha: 0 to 29%
  pest or weed control at 70 g/ha: 75 to 84%
  pest or weed control at 140 g/ha: 85 to 94%
[1]; [6]
  pest or weed control at 35 g/ha: 95 to 100%
  pest or weed control at 70 g/ha: 95 to 100%
  pest or weed control at 140 g/ha: 95 to 100%
[1]; [7]
  pest or weed control at 35 g/ha: 0 to 29%
  pest or weed control at 70 g/ha: 0 to 29%
  pest or weed control at 140 g/ha: 0 to 29%
[1]; [8]
  pest or weed control at 35 g/ha: 95 to 100%
  pest or weed control at 70 g/ha: 95 to 100%
  pest or weed control at 140 g/ha: 95 to 100%
[2]; [9]
  pest or weed control at 35 g/ha: 0 to 29%
  pest or weed control at 70 g/ha: 0 to 29%
  pest or weed control at 140 g/ha: 0 to 29%
[2]; [10]
  pest or weed control at 35 g/ha: 0 to 29%
  pest or weed control at 70 g/ha: 0 to 29%
  pest or weed control at 140 g/ha: 0 to 29%
[2]; [11]
  pest or weed control at 35 g/ha: 30 to 44%
  pest or weed control at 70 g/ha: 60 to 74%
  pest or weed control at 140 g/ha: 60 to 74%
[2]; [12]
  pest or weed control at 35 g/ha: 0 to 29%
  pest or weed control at 70 g/ha: 0 to 29%
  pest or weed control at 140 g/ha: 0 to 29%
[2]; [13]
  pest or weed control at 35 g/ha: 0 to 29%
  pest or weed control at 70 g/ha: 30 to 44%
  pest or weed control at 140 g/ha: 45 to 59%
[2]; [14]
  pest or weed control at 35 g/ha: 0 to 29%
  pest or weed control at 70 g/ha: 0 to 29%
  pest or weed control at 140 g/ha: 0 to 29%
